Measurements: BindingDB's records for doi:10.1016/j.bioorg.2016.08.005 (Comsats Institute of Information Technology, 2016)

Key:
[1] = biological target: Aldo-keto reductase family 1 member A1 (Bos taurus, UniProt Q3ZCJ2); test: ALR1 in vitro Inhibition Assay; details: pH 6.2
Procedure: The assay results were obtained at 340 nm and ALR1 inhibitory activity was measured with the absorbance change at this respective wavelength. Each well contains 200 µL of assay mixture containing potassium phosphate buffer 100 mM at pH 6.2 with test sample 20 µL of 10 mM, 70 µL enzyme preparation and 40 µL of10 mM sodium D-glucoronic acid as a substrate. This mixture was incubated at 37 °C for 5 min and 50 µL of 0.1 mM NADPH as a cofactor was added and the read was obtained at 340 nm. The assay mixture was incubated again at 37 °C for 10 min and the read was taken at the respective UV range in ELIZA plate reader. As positive and negative control, 10 mM valproic acid (20 µL) and buffer solution (20 µL) were used [Biol. Chem., 240:877-882].

[2] = biological target: Aldo-keto reductase family 1 member B1 [K65Q] (Bos taurus, UniProt P16116, K65Q); test: ALR2 in vitro Inhibition Assay
Procedure: The activity of ALR2 enzyme was determined at 340 nm in UV spectrophotometer that depends upon the measurement of NADPH consumption. Each well of the 96-well plate contains 200 µL of assay mixture consisting of potassium phosphate buffer 100 mMat 6.2 pH, 20 µL of 10 mM test sample, 70 µL of enzyme preparation and substrate D,L-glyceraldehyde (40 µL), all mixture was incubated at 37 °C for 5 min and then 0.1 mM NADPH (50 µL) was added as a cofactor in the enzyme reaction and read was measured at 340 nm and followed by incubation at 37 °C for 10 min and thenabsorbance was measured in Eliza plate reader at respective wavelength. Negative and positive control used were 10 m M buffer (20 µL) and 10 mM sulindac (20 µL) [Med. Chem. Commun., 5:1371-1380].

Sequence of Aldo-keto reductase family 1 member A1 (Q3ZCJ2 whole entry): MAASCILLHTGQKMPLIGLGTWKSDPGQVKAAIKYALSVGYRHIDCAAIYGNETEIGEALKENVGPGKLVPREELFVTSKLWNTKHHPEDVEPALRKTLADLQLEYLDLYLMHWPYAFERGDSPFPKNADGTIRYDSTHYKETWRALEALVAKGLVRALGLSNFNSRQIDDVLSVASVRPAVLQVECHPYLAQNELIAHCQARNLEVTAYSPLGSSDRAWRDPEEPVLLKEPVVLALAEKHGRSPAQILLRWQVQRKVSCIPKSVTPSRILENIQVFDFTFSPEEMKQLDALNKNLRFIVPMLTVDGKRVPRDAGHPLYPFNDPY

| SMILES | IC50 [1] [µM] | IC50 [2] [nM] |
| --- | --- | --- |
| COc1ccc(/C(C)=N/Nc2nc(-c3cc4ccccc4oc3=O)cs2)c(O)c1 [(E)-3-(2-(2-(1-(2-hydroxy-4-methoxyphenyl)ethylidene)hydrazinyl)thiazol-4-yl)-2H-chromen-2-one (6j)] | 5.47 |  |
| C/C(=N\Nc1nc(-c2cc3ccccc3oc2=O)cs1)c1cc2ccccc2oc1=O [Coumarin-thiazole series I, 6o] | 8.91 |  |
| C/C(=N\Nc1nc(-c2cc3ccccc3oc2=O)cs1)c1ccc(Br)cc1 [(E)-3-(2-(2-(1-(4-bromophenyl)ethylidene)hydrazinyl)thiazol-4-yl)-2H-chromen-2-one (6e)] | 1.71 | 110 |
| CCCCNCn1nc(-c2cc3ccccc3oc2=O)oc1=S [3-(4-((Butylamino)methyl)-5-thioxo-4,5-dihydro-1,3,4-oxadiazol-2-yl)-2H-chromen-2-one (11b)] | 3.36 | 57500 |
| Cc1ccc(NCn2nc(-c3cc4ccccc4oc3=O)oc2=S)cc1 [3-(4-((p-Toluidino)methyl)-5-thioxo-4,5-dihydro-1,3,4-oxadiazol-2-yl)-2H-chromen-2-one (11c)] | 7.11 |  |
| O=c1oc2ccccc2cc1-c1nn(CN(c2ccccc2)c2ccccc2)c(=S)o1 [3-(4-((Diphenylamino)methyl)-5-thioxo-4,5-dihydro-1,3,4-oxadiazol-2-yl)-2H-chromen-2-one (11h)] |  | 3390 |
| COc1ccc(/C(C)=N/Nc2nc(-c3cc4ccccc4oc3=O)cs2)cc1I [(E)-3-(2-(2-(1-(3-iodo-4-methoxyphenyl)ethylidene)hydrazinyl)thiazol-4-yl)-2H-chromen-2-one (6l)] | 14.4 |  |
| CC1=C(CC(=O)O)c2cc(F)ccc2/C1=C\c1ccc([S@@+](C)[O-])cc1 [cis-5-Fluoro-2-methyl-1-((p-methylsulfinyl)benzylidene)indene-3-acetic acid] |  | 293 |
| COc1ccc(/C(C)=N/Nc2nc(-c3cc4ccccc4oc3=O)cs2)cc1 [(E)-3-(2-(2-(1-(4-methoxyphenyl)ethylidene)hydrazinyl)thiazol-4-yl)-2H-chromen-2-one (6h)] | 7.62 |  |
| O=c1oc2ccccc2cc1-c1nn(CN2CCOCC2)c(=S)o1 [3-(4-(Morpholinomethyl)-5-thioxo-4,5-dihydro-1,3,4-oxadiazol-2-yl)-2H-chromen-2-one (11g)] |  | 340 |
| C/C(=N\Nc1nc(-c2cc3ccccc3oc2=O)cs1)c1ccccc1Br [(E)-3-(2-(2-(1-(2-bromophenyl)ethylidene)hydrazinyl)thiazol-4-yl)-2H-chromen-2-one (6c)] | 34.7 | 160 |
| O=c1oc2ccccc2cc1-c1nn(CNc2ccc(Cl)cc2)c(=S)o1 [3-(4-((4-Chlorophenylamino)methyl)-5-thioxo-4,5-dihydro-1,3,4-oxadiazol-2-yl)-2H-chromen-2-one (11f)] | 5.68 | 3390 |
| C/C(=N\Nc1nc(-c2cc3ccccc3oc2=O)cs1)c1cccc(Br)c1 [(E)-3-(2-(2-(1-(3-bromophenyl)ethylidene)hydrazinyl)thiazol-4-yl)-2H-chromen-2-one (6d)] | 93.6 | 6350 |
| COc1ccc(/C(C)=N/Nc2nc(-c3cc4ccccc4oc3=O)cs2)cc1F [(E)-3-(2-(2-(1-(3-fluoro-4-methoxyphenyl)ethylidene)hydrazinyl)thiazol-4-yl)-2H-chromen-2-one (6i)] | 1.08 |  |
| C/C(=N\Nc1nc(-c2cc3ccccc3oc2=O)cs1)c1ccccc1F [(E)-3-(2-(2-(1-(2-fluorophenyl)ethylidene)hydrazinyl)thiazol-4-yl)-2H-chromen-2-one (6f)] | 57.4 |  |
| O=c1oc2ccccc2cc1-c1nn(CNc2ccccc2Cl)c(=S)o1 [3-(4-((2-Chlorophenylamino)methyl)-5-thioxo-4,5-dihydro-1,3,4-oxadiazol-2-yl)-2H-chromen-2-one (11d)] |  | 310 |
| O=c1oc2ccccc2cc1-c1csc(NN=C(c2ccccc2)c2ccccc2)n1 [3-(2-(2-(diphenylmethylene)hydrazinyl)thiazol-4-yl)-2Hchromen-2-one (6n)] | 17.1 |  |
| O=c1oc2ccccc2cc1-c1nn(CNc2cccc(Cl)c2)c(=S)o1 [3-(4-((3-Chlorophenylamino)methyl)-5-thioxo-4,5-dihydro-1,3,4-oxadiazol-2-yl)-2H-chromen-2-one (11e)] | 15.2 |  |
| COc1cc(/C(C)=N/Nc2nc(-c3cc4ccccc4oc3=O)cs2)ccc1O [(E)-3-(2-(2-(1-(4-hydroxy-3-methoxyphenyl)ethylidene)hydrazinyl)thiazol-4-yl)-2H-chromen-2-one (6k)] | 1.41 | 1760 |
| C/C(=N\Nc1nc(-c2cc3ccccc3oc2=O)cs1)c1ccccc1 [Coumarin-thiazole series I, 6a] | 2.94 | 120 |
